Source: the supplement of paper PMC10307832

Columns and labels:
Test in all cases: relative viability (nuclei count vs DMSO), 5 days (fraction); higher = more cells survive
ABC-1 = system: ABC-1
Summary of the method: (§1)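 One day after seeding in 1536-well plates, lung cancer cell lines were dosed by pin tool. Dosing was either single-drug or a fixed anchor-drug dose plus five library-drug doses (not always all listed) in √10 steps. After 5 days, nuclei were stained in one fix-and-stain step and counted on 4× images, and relative viability is the nuclei count of treated wells over that of vehicle wells, given as the median of duplicate plates.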

ChaGo-K-1 = system: ChaGo-K-1
Summary of the method: as §1

HCC-78 = system: HCC-78
Summary of the method: as §1

HOP-62 = system: HOP-62
Summary of the method: as §1

LCLC-97TM1 = system: LCLC-97TM1
Summary of the method: as §1

LOU-NH91 = system: LOU-NH91
Summary of the method: as §1

NCI-H1355 = system: NCI-H1355
Summary of the method: as §1

NCI-H1437 = system: NCI-H1437
Summary of the method: as §1

NCI-H1755 = system: NCI-H1755
Summary of the method: as §1

NCI-H1792 = system: NCI-H1792
Summary of the method: as §1

NCI-H2009 = system: NCI-H2009
Summary of the method: as §1

NCI-H2023 = system: NCI-H2023
Summary of the method: as §1

NCI-H2085 = system: NCI-H2085
Summary of the method: as §1

NCI-H2170 = system: NCI-H2170
Summary of the method: as §1

NCI-H23 = system: NCI-H23
Summary of the method: as §1

NCI-H2405 = system: NCI-H2405
Summary of the method: as §1

NCI-H322M = system: NCI-H322M
Summary of the method: as §1

NCI-H441 = system: NCI-H441
Summary of the method: as §1

NCI-H650 = system: NCI-H650
Summary of the method: as §1

NCI-H727 = system: NCI-H727
Summary of the method: as §1

RERF-LC-KJ = system: RERF-LC-KJ
Summary of the method: as §1

SK-MES-1 = system: SK-MES-1
Summary of the method: as §1

UMC-11 = system: UMC-11
Summary of the method: as §1

Which results are given for `O=c1[nH]c2ccccc2n1C1CCN(CCCC(c2ccc(F)cc2)c2ccc(F)cc2)CC1` [Pimozide] + Nc1ncn([C@H]2C[C@H](O)[C@@H](CO)O2)c(=O)n1 [Decitabine] (partner 2 µM)?
relative viability (ABC-1; first compound 0.08 µM): 1.18; relative viability (ABC-1; first compound 0.253 µM): 0.831; relative viability (ABC-1; first compound 0.8 µM): 1.22; relative viability (ABC-1; first compound 2.53 µM): 1.08; relative viability (ABC-1; first compound 8 µM): 1.02; relative viability (ChaGo-K-1; first compound 0.08 µM): 0.515; relative viability (ChaGo-K-1; first compound 0.253 µM): 0.453; relative viability (ChaGo-K-1; first compound 0.8 µM): 0.5; relative viability (ChaGo-K-1; first compound 2.53 µM): 0.546; relative viability (ChaGo-K-1; first compound 8 µM): 0.546; relative viability (HCC-78; first compound 0.08 µM): 0.735; relative viability (HCC-78; first compound 0.8 µM): 0.671; relative viability (HCC-78; first compound 2.53 µM): 0.671; relative viability (HCC-78; first compound 8 µM): 0.702; relative viability (HOP-62; first compound 0.08 µM): 0.231; relative viability (HOP-62; first compound 0.253 µM): 0.228; relative viability (HOP-62; first compound 2.53 µM): 0.245; relative viability (HOP-62; first compound 8 µM): 0.244; relative viability (LCLC-97TM1; first compound 0.08 µM): 0.229; relative viability (LCLC-97TM1; first compound 0.253 µM): 0.245; relative viability (LCLC-97TM1; first compound 0.8 µM): 0.183; relative viability (LCLC-97TM1; first compound 2.53 µM): 0.221; relative viability (LCLC-97TM1; first compound 8 µM): 0.228; relative viability (LOU-NH91; first compound 0.08 µM): 0.64; relative viability (LOU-NH91; first compound 0.253 µM): 0.818; relative viability (LOU-NH91; first compound 0.8 µM): 0.778; relative viability (LOU-NH91; first compound 2.53 µM): 0.829; relative viability (LOU-NH91; first compound 8 µM): 0.866; relative viability (NCI-H1355; first compound 0.08 µM): 0.345; relative viability (NCI-H1355; first compound 0.253 µM): 0.332; relative viability (NCI-H1355; first compound 0.8 µM): 0.339; relative viability (NCI-H1355; first compound 2.53 µM): 0.339; relative viability (NCI-H1355; first compound 8 µM): 0.337; relative viability (NCI-H1437; first compound 0.08 µM): 0.632; relative viability (NCI-H1437; first compound 0.253 µM): 0.547; relative viability (NCI-H1437; first compound 0.8 µM): 0.555; relative viability (NCI-H1437; first compound 2.53 µM): 0.465; relative viability (NCI-H1437; first compound 8 µM): 0.549; relative viability (NCI-H1755; first compound 0.08 µM): 0.675; relative viability (NCI-H1755; first compound 0.253 µM): 0.659; relative viability (NCI-H1755; first compound 0.8 µM): 0.624; relative viability (NCI-H1755; first compound 2.53 µM): 0.684; relative viability (NCI-H1755; first compound 8 µM): 0.69; relative viability (NCI-H1792; first compound 0.08 µM): 0.59; relative viability (NCI-H1792; first compound 0.253 µM): 0.53; relative viability (NCI-H1792; first compound 0.8 µM): 0.33; relative viability (NCI-H1792; first compound 2.53 µM): 0.534; relative viability (NCI-H1792; first compound 8 µM): 0.547; relative viability (NCI-H2009; first compound 0.08 µM): 0.442; relative viability (NCI-H2009; first compound 0.253 µM): 0.374; relative viability (NCI-H2009; first compound 0.8 µM): 0.327; relative viability (NCI-H2009; first compound 2.53 µM): 0.436; relative viability (NCI-H2009; first compound 8 µM): 0.412; relative viability (NCI-H2023; first compound 0.08 µM): 0.229; relative viability (NCI-H2023; first compound 0.253 µM): 0.273; relative viability (NCI-H2023; first compound 0.8 µM): 0.196; relative viability (NCI-H2023; first compound 2.53 µM): 0.247; relative viability (NCI-H2023; first compound 8 µM): 0.284; relative viability (NCI-H2085; first compound 0.08 µM): 0.545; relative viability (NCI-H2085; first compound 0.253 µM): 0.544; relative viability (NCI-H2085; first compound 0.8 µM): 0.573; relative viability (NCI-H2085; first compound 2.53 µM): 0.551; relative viability (NCI-H2085; first compound 8 µM): 0.585; relative viability (NCI-H2170; first compound 0.08 µM): 0.43; relative viability (NCI-H2170; first compound 0.253 µM): 0.453; relative viability (NCI-H2170; first compound 0.8 µM): 0.432; relative viability (NCI-H2170; first compound 2.53 µM): 0.477; relative viability (NCI-H2170; first compound 8 µM): 0.454; relative viability (NCI-H23; first compound 0.08 µM): 0.304; relative viability (NCI-H23; first compound 0.253 µM): 0.301; relative viability (NCI-H23; first compound 0.8 µM): 0.294; relative viability (NCI-H23; first compound 2.53 µM): 0.333; relative viability (NCI-H23; first compound 8 µM): 0.325; relative viability (NCI-H2405; first compound 0.08 µM): 0.71; relative viability (NCI-H2405; first compound 0.253 µM): 0.686; relative viability (NCI-H2405; first compound 0.8 µM): 0.695; relative viability (NCI-H2405; first compound 2.53 µM): 0.69; relative viability (NCI-H2405; first compound 8 µM): 0.669; relative viability (NCI-H322M; first compound 0.08 µM): 0.581; relative viability (NCI-H322M; first compound 0.253 µM): 0.705; relative viability (NCI-H322M; first compound 0.8 µM): 0.719; relative viability (NCI-H322M; first compound 2.53 µM): 0.772; relative viability (NCI-H322M; first compound 8 µM): 0.632; relative viability (NCI-H441; first compound 0.08 µM): 0.208; relative viability (NCI-H441; first compound 0.253 µM): 0.255; relative viability (NCI-H441; first compound 0.8 µM): 0.234; relative viability (NCI-H441; first compound 2.53 µM): 0.236; relative viability (NCI-H441; first compound 8 µM): 0.241; relative viability (NCI-H650; first compound 0.08 µM): 0.278; relative viability (NCI-H650; first compound 0.253 µM): 0.33; relative viability (NCI-H650; first compound 0.8 µM): 0.342; relative viability (NCI-H650; first compound 2.53 µM): 0.321; relative viability (NCI-H650; first compound 8 µM): 0.275; relative viability (NCI-H727; first compound 0.08 µM): 0.834; relative viability (NCI-H727; first compound 0.253 µM): 0.588; relative viability (NCI-H727; first compound 0.8 µM): 0.933; relative viability (NCI-H727; first compound 2.53 µM): 0.98; relative viability (NCI-H727; first compound 8 µM): 0.856; relative viability (RERF-LC-KJ; first compound 0.08 µM): 0.674; relative viability (RERF-LC-KJ; first compound 0.253 µM): 0.562; relative viability (RERF-LC-KJ; first compound 0.8 µM): 0.63; relative viability (RERF-LC-KJ; first compound 2.53 µM): 0.401; relative viability (RERF-LC-KJ; first compound 8 µM): 0.544; relative viability (SK-MES-1; first compound 0.08 µM): 0.389; relative viability (SK-MES-1; first compound 0.253 µM): 0.39; relative viability (SK-MES-1; first compound 0.8 µM): 0.355; relative viability (SK-MES-1; first compound 2.53 µM): 0.454; relative viability (SK-MES-1; first compound 8 µM): 0.774; relative viability (UMC-11; first compound 0.08 µM): 0.638; relative viability (UMC-11; first compound 0.253 µM): 0.579; relative viability (UMC-11; first compound 0.8 µM): 0.53; relative viability (UMC-11; first compound 2.53 µM): 0.593; relative viability (UMC-11; first compound 8 µM): 1.03
